Test results as given in patent US20090238792A1, “SUPPRESSION OF POSTOPERATIVE ILEUS” (University of Pittsburgh of the Commonwealth System of …, priority 2007, published 2009).

Experiments:
IL-6 mRNA = experiment: Real-time RT-PCR of muscularis IL-6 mRNA 3 hours postoperatively; assay type: in vivo, rat
Protocol: (§1) Age matched animals treated with vehicle (normal saline) or valine (263.5 mg/kg, osmotic control) at appropriate time points and at equal volumes served as controls.
(§2) The rodent intestine was subjected to a standardized degree of surgical manipulation as described previously (14). Rats were anesthetized by isoflurane inhalation and the abdomen was opened by a midline laparotomy. The cecum was eventrated and laid out onto a moist gauze. Then, the intestine was inspected along its length and gently compressed using moist cotton applicators. The midline incision was closed by two layers of continuous sutures. All operative procedures were performed under sterile conditions with the intestine being handled only by instruments and never touched directly. Animals were killed at specific time points postoperatively by isoflurane anesthesia inhalation overdose and heart incision.
(§3) mRNA Expression Analysis: Postoperative mediator mRNA expressions in the small intestinal muscularis were analyzed using SYBR Green two-step real-time RT-PCR as previously described, (N=4-6). […] Total mRNA extraction was performed using the guanidium-thiocyanate phenol-chloroform extraction method. Equal aliquots (200 ng) of total RNA from each sample, quantified by spectrophotometer, were processed for complimentary DNA (cDNA) synthesis. Primer sequences were used as described previously (tumor necrosis factor-a, TNF-a) (35), or designed according to published sequences 36-41, (GenBank accession numbers: NM_017008 [glyceraldehyde phosphate dehydrogenase (GAPDH)], AF233596 [cyclo-oxygenase-2 (COX-2)], NM_012967 [intercellular adhesion molecule-1 (ICAM-1)], M26744 [interleukin-6 (IL-6)] and NM_012611 [inducible nitric oxide synthase (iNOS)]), using Primer Express software (PE Applied Biosystems, Foster City, Calif.) and purchased from Life Technologies (Rockville, Md.). GAPDH was used as an endogenous control. The efficiency and equality of the real-time PCR primer pairs were determined by amplifying serial dilutions of muscularis cDNA. For each target gene different MgCl2 (3 to 5 mM) concentrations were tested to optimize the PCR amplification. […] Relative quantification was performed using the comparative CT method as described by Schmittgen et al. (42).
Methods: ACI-rats (180-220 g) underwent standardized surgical manipulation of the intestine. […] Postoperative mediator mRNA expression in the intestinal muscularis was determined by real-time RT PCR. […] Nitrite production was measured in muscularis cultures. In vivo transit of FITC-dextran was measured using geometric center analysis (GC). In vitro circular muscle contractility was assessed in a standard organ bath. […]

[1] = test system: rats with surgical manipulation of the intestine; experiment: Rat in vivo gastrointestinal transit of fluorescein-labeled dextran (geometric center)
Protocol: as §1, §2
(§4) Methods: ACI-rats (180-220 g) underwent standardized surgical manipulation of the intestine. […] Age matched animals treated with vehicle or valine (osmotic control) at appropriate time points and at equal volumes served as controls. […] Postoperative mediator mRNA expression in the intestinal muscularis was determined by real-time RT PCR. Leukocyte extravasation was investigated in muscularis whole-mounts. Nitrite production was measured in muscularis cultures. In vivo transit of FITC-dextran was measured using geometric center analysis (GC). In vitro circular muscle contractility was assessed in a standard organ bath. Statistical analysis: unpaired Student t test, p<0.05, mean±SEM.

[2] = test system: MPO positive leukocytes in the intestinal muscularis; experiment: Myeloperoxidase (MPO) histochemistry: leukocyte infiltration in muscularis whole-mounts; assay type: in vivo, rat; conditions: for infiltrating MPO positive leukocytes: manipulated rats, 24 h postoperatively, SM vehicle 95±6.4
Protocol: as §1, §2
Histochemistry and Immunohistochemistry: Leukocyte infiltration was quantified on rat whole-mounts of the intestinal muscularis as described previously (N=6-8) (43). Myeloperoxidase (MPO) positive cells were detected using a mixture of 30 mg Hanker-Yates reagent, 30 ml KRB and […] 3% hydrogen peroxide for 10 minutes. Leukocytes were counted in 5 randomly chosen areas in each specimen (3 specimen per animal) at a magnification of 200×.
as §4

[3] = test system: C57Bl/6 mice with surgical manipulation (SM); conditions: SM+glycine 170 mg/kg, control=11.0±0.44, SM=4.1±0.18, SM+saline=4.1±0.5
Protocol: as §1

[4] = test system: interleukins and chemokines
Text: Luminex Multiplex Bead Immunoassays: The release of […] inflammatory analytes into the mouse tissue culture supernatant, obtained as above, was quantified with a Luminex 100™ using microsphere-based multiplexing technology. The mouse cytokine twenty plex immune kit was comprised of analyte specific components for the simultaneous measurement of the following mouse cytokines (FGF-basic, IL-1α, IL-1β, IL-2, IL-4, IL-5, IL-6, IL-10, IL-12p70, IL-13, IL-17, TNF-α, IFN-γ, GM-CSF, KC, MCP-1, MIG, MIP-1α, IP-10 and VEGF) (Invitrogen, Carlsbad, Calif.).

COX-2 mRNA = conditions: glycine 170 mg/kg, 3 hours postoperatively; SM 3.2-fold; not significant
Protocol: as §1
as §2, with “Animals were killed at specific time points postoperatively by isoflurane anesthesia inhalation overdose and heart incision.” left out
mRNA Expression Analysis: Postoperative mediator mRNA expressions in the small intestinal muscularis were analyzed using SYBR Green two-step real-time RT-PCR as previously described, (N=4-6). […] Equal aliquots (200 ng) of total RNA from each sample, quantified by spectrophotometer, were processed for complimentary DNA (cDNA) synthesis. […] The efficiency and equality of the real-time PCR primer pairs were determined by amplifying serial dilutions of muscularis cDNA. […] Relative quantification was performed using the comparative CT method as described by Schmittgen et al. (42).

TNF-α mRNA = conditions: 3 hours postoperatively
Protocol: as §1, §2
as §3, with “amplification. Agarose gel electrophoretic analysis was used to verify the presence of a single product and that the amplified product corresponded to size predicted for the amplicon. The PCR reaction mixture was prepared using the SYBR Green PCR Core Reagents (PE Applied Biosystems, Foster City, Calif.). PCR conditions on an ABI PRISM 7700 Sequence Detection System (PE Applied Biosystems, Foster City, Calif.) were as recommended by the manufacturer. Each sample was estimated in duplicate.” for “amplification.”
as §4

iNOS mRNA = conditions: 3 hours postoperatively
Protocol: as §1, §2
as §3, with “amplification. Agarose gel electrophoretic analysis was used to verify the presence of a single product and that the amplified product corresponded to size predicted for the amplicon. The PCR reaction mixture was prepared using the SYBR Green PCR Core Reagents (PE Applied Biosystems, Foster City, Calif.). PCR conditions on an ABI PRISM 7700 Sequence Detection System (PE Applied Biosystems, Foster City, Calif.) were as recommended by the manufacturer. Each sample was estimated in duplicate.” for “amplification.”
as §4

ICAM-1 mRNA = conditions: 3 hours postoperatively
Protocol: as §1, §2
as §3, with “amplification. Agarose gel electrophoretic analysis was used to verify the presence of a single product and that the amplified product corresponded to size predicted for the amplicon. The PCR reaction mixture was prepared using the SYBR Green PCR Core Reagents (PE Applied Biosystems, Foster City, Calif.). PCR conditions on an ABI PRISM 7700 Sequence Detection System (PE Applied Biosystems, Foster City, Calif.) were as recommended by the manufacturer. Each sample was estimated in duplicate.” for “amplification.”
as §4

[5] = test system: jejunal circular smooth muscle; experiment: In vitro bethanechol stimulated contractile activity of jejunal circular muscle strips; assay type: in vivo, rat; conditions: for mean contractile force, bethanechol stimulated: manipulated rats, 100 mM bethanechol, control 3.2±0.2, SM vehicle 1.9±0.1
Protocol: as §1, §2
Mechanical in vitro activity of the rat mid-jejunum was evaluated at 24 hours postoperatively using smooth muscle strips of the circular muscularis as described previously (rats: N=5-11) (14). After dissection and a 30 minute equilibration period, the individual muscles were incrementally stretched to L0. Then after recording spontaneous contractility for 30 minutes, dose response curves were generated using increasing concentrations of the muscarinic agonist bethanechol ([…]) for 10 minutes and intervening wash periods (KRB) of 10 minutes. The contractile response was recorded and analyzed as g/mm2/sec over a 10 minute period.
as §4

[6] = Example 5, glycine (170 mg) i.v. 1 hour prior to surgery

SMILES: NCC(=O)O [glycine]
- IL-6 mRNA induction vs non-operated vehicle treated controls (IL-6 mRNA; glycine pretreatment, 3 hours postoperatively, manipulation alone 8521 fold): 2742 fold
- mediator mRNA levels in non-operated animals vs non-operated vehicle rats (IL-6 mRNA; non-operated glycine injected rats): did not differ
- postoperative induction of IL-6 mRNA (IL-6 mRNA; surgically manipulated rats, 3 hours postoperatively): significantly attenuated
- postoperative intestinal transit [1, 6]: ameliorated
- geometric center (GC) of gastrointestinal transit ([1]; surgically manipulated rats, 24 h postoperatively, i.v. pretreatment 1 h before surgery, glycine 170 mg/kg, valine 263.5 mg/kg, SM vehicle GC=5.2±0.7): 8.5±0.7
- reduction of infiltrating leukocytes compared to manipulated vehicle pretreated rats ([2]; glycine 85 mg/kg): 18%
- reduction of infiltrating leukocytes compared to manipulated vehicle pretreated rats ([2]; glycine 170 mg/kg): 27%
- infiltrating MPO positive leukocytes ([2]; 85 mg/kg glycine): 78±5.1 cells/field at 200×
- infiltrating MPO positive leukocytes ([2]; glycine 170 mg/kg or valine (263.5 mg/kg)): 69±5.7 cells/field at 200×
- MPO positive cells ([2]; rats without intestinal manipulation, glycine injected, vehicle 2±0.9): 2±0.5 cells/field at 200× magnification
- geometric center of gastrointestinal transit [3]: 10.3±7
- interleukins and chemokines released into organ culture media, colonic muscularis externa ([4]; manipulated colonic muscularis, significance reached by IL-5, IL-6, IL-10, IL-12, KC, MCP-1, MIP1-α and GM-CSF): tended to be quelled
- interleukins and chemokines released into organ culture media, jejunal muscularis externa ([4]; manipulated jejunal muscularis, significance reached by IL-6, IP-10 and MIP1-α): tended to be quelled
- production of chemokines (IP-10, KC, MCP-1, MIP-1α, VEGF and GM-CSF) ([4]; organ cultured muscularis of jejunum and colon, more dramatic in colon): trend for the inhibition
- release of interleukins 5, 6, 10 and 12 ([4]; organ cultured muscularis of jejunum and colon, more pronounced in colon): decrease
- COX-2 mRNA postoperative upregulation (COX-2 mRNA): 2.3 fold
- TNF-α mRNA induction vs non-operated vehicle treated controls (TNF-α mRNA; glycine pretreatment, manipulation alone 3.4 fold): 1.9 fold
- postoperative induction of TNF-α mRNA (TNF-α mRNA; surgically manipulated rats): attenuation
- surgical induction of iNOS mRNA (iNOS mRNA; SM vehicle 197.1-fold): significantly suppressed
- iNOS mRNA induction vs non-operated vehicle treated controls (iNOS mRNA; glycine pretreatment, manipulation alone 197 fold): 17 fold
- ICAM-1 mRNA induction vs non-operated vehicle treated controls (ICAM-1 mRNA; glycine pretreatment, manipulation alone 21 fold): 14 fold
- postoperative induction of ICAM-1 mRNA (ICAM-1 mRNA; surgically manipulated rats): attenuation
- amelioration of postoperative muscularis contractility [5, 6]: 54%
- mean contractile force, bethanechol stimulated ([5]; 85 mg/kg glycine): 2.4±0.3 g/mm2/s
- mean contractile force, bethanechol stimulated ([5]; 170 mg/kg glycine or valine pretreatment): 2.9±0.3 g/mm2/s
